# Assay results taken from publication PMC11219871, “Epigenetic-based differentiation therapy for Acute Myeloid Leukemia” (Nature Communications, 2024).
# Values joined by “and” are separate entries in the source; they are usually repeats but may differ in a detail not shown here. Equal entries are not always repeated.
# Experiments:
# [1] = test system: GF-D8; test: Cell proliferation assay: GI50; assay type: cell-based; conditions: GF-D8, replicates 1-3
# Experimental: (§1) Cell proliferation was analyzed using the CellTiter 96 Aqueous One Solution Cell Proliferation Assay (Promega, Madison, WI). This is a colorimetric method for determining the number of viable cells in proliferation. For the assay, suspension cells were cultured in triplicate at a density of 1 × 10^6 cells/mL in 96-well plates (100.000 cells/well, 100 µL/well), using only the 60 inner wells to avoid any border effects. After 48 h of treatment with different doses of each compound (0, 0.001, 0.01, 0.1, 0.2, 0.4, 0.6, 0.8, 1, 2, 3, 4, 5 and 10 µM), the plates were centrifuged at 800 g for 10 min followed by removal of the medium. Then, the cells were incubated with 100 μL/well of medium and 20 μL/well of CellTiter 96 Aqueous One Solution reagent for 1–3 h. The absorbance was recorded at 490 and 650 nm as reference wavelengths using 96-well plate readers until the absorbance of the control cells without treatment was approximately 0.8 AU. The background absorbance was measured in wells with only cell line medium and solution reagent. First, the average of the absorbance from the control wells was subtracted from all other absorbance values. Data were calculated as the percentage of total absorbance of treated cells/absorbance of non-treated cells. The GI50 values of the different compounds were determined using non-linear regression plots made with GraphPad Prism v5 software.
# [2] = test system: HEL; test: Cell proliferation assay: GI50; assay type: cell-based; conditions: replicates 1-3
# Experimental: as §1
# [3] = test system: KASUMI-1; test: Cell proliferation assay: GI50; assay type: cell-based
# Experimental: as §1
# [4] = test system: M-07e; test: Cell proliferation assay: GI50; assay type: cell-based; conditions: replicates 1-3
# Experimental: as §1
# [5] = test system: MONO-MAC-6; test: Cell proliferation assay: GI50; assay type: cell-based
# Experimental: as §1
# [6] = test system: NB-4; test: Cell proliferation assay: GI50; assay type: cell-based
# Experimental: as §1
# [7] = test system: OCI-AML2; test: Cell proliferation assay: GI50; assay type: cell-based
# Experimental: as §1
# [8] = test system: OCI-AML3; test: Cell proliferation assay: GI50; assay type: cell-based
# Experimental: as §1
# [9] = test system: TF-1; test: Cell proliferation assay: GI50; assay type: cell-based
# Experimental: as §1
# [10] = test system: THP-1; test: Cell proliferation assay: GI50; assay type: cell-based
# Experimental: as §1
# [11] = test system: UT-7; test: Cell proliferation assay: GI50; assay type: cell-based
# Experimental: as §1
# [12] = test system: ML-2; test: Differentiation-apoptosis assay, CD11b / annexin-V / Sytox Green / myeloid markers flow cytometry; assay type: cell-based, human; parameters: Cell viability: concentration or dose not given beside the values; CD11b levels: unit not given here
# In short: (§2)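 Cells washed in PBS, resuspended at 1 × 10^6 cells/mL in binding buffer and stained with APC-CD11b and FITC annexin-V for 15 min at room temperature in the dark, then read by flow cytometry. Other runs used a CD13/HLA-DR/CD14 antibody panel, 30 min staining, then red-cell lysis and washes.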
# [13] = test system: MOLM-13; test: as above; assay type: cell-based, human; parameters: Cell viability (%): concentration or dose not given beside the values; CD11b levels: unit not given here
# In short: as §2
# [14] = test system: MV4-11; test: as above; assay type: cell-based, human; parameters: Cell viability (%): concentration or dose not given beside the values; CD11b levels: unit not given here
# In short: as §2
# [15] = ML-2, 48 h, replicates (Fig 4A)
# [16] = ML-2, daily treatment, time 0 days, replicates 1-3 (Figure 2B)
# [17] = ML-2, daily treatment, time 2 days, replicates 1-3 (Figure 2B)
# [18] = ML-2, daily treatment, time 4 days, replicates 1-3 (Figure 2B)
# [19] = ML-2, daily treatment, time 6 days, replicates 1-3 (Figure 2B)
# [20] = ML-2, daily treatment, time 8 days, replicates 1-3 (Figure 2B)
# [21] = MOLM-13, 48 h treatment, replicates 1-3 (Suppl. Fig. 5A)
# [22] = MOLM-13, daily treatment, time 0 days
# [23] = MOLM-13, daily treatment, time 2 days
# [24] = MOLM-13, daily treatment, time 4 days
# [25] = MOLM-13, daily treatment, time 6 days
# [26] = MOLM-13, daily treatment, time 8 days
# [27] = MV4-11, 48 h treatment, replicates 1-3 (Suppl. Fig. 5A)
# [28] = MV4-11, daily treatment, time 0 days
# [29] = MV4-11, daily treatment, time 2 days
# [30] = MV4-11, daily treatment, time 4 days
# [31] = MV4-11, daily treatment, time 6 days
structure (smiles),measurement,setting,value
"COc1cc2nc(-c3ccc(C)o3)cc(NCC3CCN(c4ncc(C(=O)NO)cn4)CC3)c2cc1OC [CM-444, 2-[4-[[[6,7-dimethoxy-2-(5-methyl-2-furyl)-4-quinolyl]amino]methyl]-1-piperidyl]pyrimidine-5-carbohydroxamic acid]",GI50,[1],7.25 µM and 4.12 µM and 3.69 µM
same,GI50,[2]; Homo sapiens,1.59 µM
same,GI50,[2],1.12 µM and 0.938 µM
same,GI50,"[3]; Homo sapiens, Kasumi 1, 48 h, KASUMI-1, 48 h",0.668 µM
same,GI50,"[3]; Homo sapiens, Kasumi 1, KASUMI-1, replicates 1-3",0.521 µM
same,GI50,"[3]; KASUMI-1, replicates 1-3",0.698 µM and 0.786 µM
same,GI50,[4],1.33 µM and 1.2 µM and 1.18 µM
same,GI50,"[5]; Homo sapiens, MONO-MAC-6, 48 h",0.47 µM
same,GI50,"[5]; MONO-MAC-6, replicates 1-3",0.215 µM and 0.607 µM and 0.588 µM
same,GI50,"[6]; Homo sapiens, NB-4, 48 h",0.668 µM
same,GI50,"[6]; Homo sapiens, NB-4, NB-4, replicates 1-3",0.658 µM
same,GI50,"[6]; NB-4, replicates 1-3",0.785 µM and 0.563 µM
same,GI50,"[7]; Homo sapiens, OCI-AML2, 48 h",0.64 µM
same,GI50,"[7]; Homo sapiens, OCI-AML2, OCI-AML2, replicates 1-3",0.736 µM
same,GI50,"[7]; OCI-AML2, replicates 1-3",0.574 µM and 0.612 µM
same,GI50,"[8]; Homo sapiens, OCI-AML-3, OCI-AML3, 48 h",> 10 µM
same,GI50,"[8]; Homo sapiens, OCI-AML-3, OCI-AML3, replicates 1-3",> 10 µM
same,GI50,"[8]; OCI-AML3, replicates 1-3",> 10 µM
same,GI50,"[9]; Homo sapiens, TF-1, TF-1, replicates 1-3",3.87 µM
same,GI50,"[9]; TF-1, replicates 1-3",3.25 µM and 3.5 µM
same,GI50,"[10]; Homo sapiens, THP-1, 48 h",> 10 µM
same,GI50,"[10]; Homo sapiens, THP-1, replicates 1-3",> 10 µM
same,GI50,"[10]; THP-1, replicates 1-3",> 10 µM
same,GI50,"[11]; Homo sapiens, UT7, 48 h, UT-7, 48 h",0.97 µM
same,GI50,"[11]; Homo sapiens, UT7, UT-7, replicates 1-3",0.875 µM
same,GI50,"[11]; UT-7, replicates 1-3",1.07 µM and 0.965 µM
same,percentage of CD11b,"[12]; ML-2, 260 nM CM-444 or 210 nM CM-1758 daily for 4 days, before injection",> 90%
same,CD11b (%),"[12]; ML-2, 48 h",80.1%
same,CD13 (%),"[12]; ML-2, 48 h",100%
same,CD14 (%),"[12]; ML-2, 48 h",5.20%
same,HLA-DR (%),"[12]; ML-2, 48 h",35.7%
same,CD11b,[12]; [15],89.5% and 75.9% and 74.5%
same,Cell viability,[12]; [15],80.4% and 75.1% and 78.2%
same,differentiation level (CD11b),"[12]; ML-2, after 6–8 days of treatment",~90%
same,Annexin-V (%),[12]; [16],0% and 1.81% and 2.3%
same,CD11b (%),[12]; [16],9.3% and 9.32% and 7.24%
same,Annexin-V (%),[12]; [17],0% and 8.27% and 5.87%
same,CD11b (%),[12]; [17],24.52% and 30.8% and 32.5%
same,Annexin-V (%),[12]; [18],7.16% and 8.18% and 7.5%
same,CD11b (%),[12]; [18],47.58% and 64.3% and 58.4%
same,Annexin-V (%),[12]; [19],12.1% and 4.47% and 9.8%
same,CD11b (%),[12]; [19],89.87% and 81.3% and 87.3%
same,Annexin-V (%),[12]; [20],10.64% and 10.25% and 11.25%
same,CD11b (%),[12]; [20],92.1% and 91.7% and 93.4%
same,CD11b (%),"[12]; ML-2 cell line, replicates 1-3 (Figure 2A)",86.3% and 76.9% and 74.7%
same,CD11b levels,"[12]; ML-2 treated daily for 48 h, replicates (Fig 6E)",70.9 and 75.6 and 72.7
same,CD11b (%),"[13]; MOLM-13, 48 h",92.8%
same,CD13 (%),"[13]; MOLM-13, 48 h",49.3%
same,CD14 (%),"[13]; MOLM-13, 48 h",66.5%
same,HLA-DR (%),"[13]; MOLM-13, 48 h",35.1%
same,CD11b (%),[13]; [21],94.2% and 88.9% and 85.7%
same,Cell viability (%),[13]; [21],70.2% and 63.7% and 70.7%
same,differentiation level (CD11b),"[13]; MOLM-13, after 6–8 days of treatment",~90%
same,CD11b levels,"[13]; MOLM-13, daily treatment for 48 h, replicates 1-3 (Suppl. Fig. 9A)",43.6 and 50.7 and 40.2
same,Annexin-V (%),[13]; [22],4.46% and 6.55% and 4.89%
same,CD11b (%),[13]; [22],6.62% and 4.5% and 6.9%
same,Annexin-V (%),[13]; [23],24.6% and 15.6% and 17.4%
same,CD11b (%),[13]; [23],63% and 58.9% and 57.2%
same,Annexin-V (%),[13]; [24],66.7% and 40.3% and 35.6%
same,CD11b (%),[13]; [24],60% and 65.3% and 63.1%
same,Annexin-V (%),[13]; [25],72.2% and 50.7% and 45.3%
same,CD11b (%),[13]; [25],66.7% and 70.8% and 65.2%
same,Annexin-V (%),[13]; [26],68.1% and 55.1% and 49.2%
same,CD11b (%),[13]; [26],68.9% and 75.7% and 73.6%
same,CD11b (%),"[13]; MOLM-13 cell line, replicates 1-3 (Figure 2A)",73.8% and 63.3% and 68.4%
same,CD11b (%),"[14]; MV4-11, 48 h",58.9%
same,CD13 (%),"[14]; MV4-11, 48 h",98.0%
same,CD14 (%),"[14]; MV4-11, 48 h",57.6%
same,HLA-DR (%),"[14]; MV4-11, 48 h",42.1%
same,CD11b (%),[14]; [27],53.8% and 54.1% and 56.8%
same,Cell viability (%),[14]; [27],72.5% and 67.1% and 68%
same,differentiation level (CD11b),"[14]; MV4-11, after 6–8 days of treatment",~90%
same,CD11b levels,"[14]; MV4-11, daily treatment for 48 h, replicates 1-3 (Suppl. Fig. 9A)",39.5 and 43.7 and 45.9
same,Annexin-V (%),[14]; [28],5.32% and 4.14% and 5.2%
same,CD11b (%),[14]; [28],11.1% and 6.62% and 5.25%
same,Annexin-V (%),[14]; [29],28.1% and 26.8% and 25.7%
same,CD11b (%),[14]; [29],30.2% and 35.8% and 36.8%
same,Annexin-V (%),[14]; [30],38.5% and 41.2% and 41.8%
same,CD11b (%),[14]; [30],53.4% and 55% and 51.8%
same,Annexin-V (%),[14]; [31],79.6% and 81.2% and 80.7%
same,CD11b (%),[14]; [31],74.9% and 73.2% and 74.5%
same,CD11b (%),"[14]; MV4-11 cell line, replicates 1-3 (Figure 2A)",41.7% and 49.8% and 50.4%
